Assay results as given in patent US8410056B2, “Pro-oxidant anti-cancer compounds” (priority 2006, dated 2013).
Entries after “also recorded” stand apart in the source; their conditions may differ.

How the values were obtained:
mesothelioma = assay: Clinical study, patient with mesothelioma; type: in vivo
Protocol: α-TOS was used to treat mesothelioma in a human cancer patient. […] The blood plasma levels were monitored and levels of α-TOS in the plasma attained 50 μM over prolonged periods during continual application. This is more than sufficient to kill the cancer cells based on in vitro analysis.
The patient was originally receiving high dose opiate medications, neuropathic pain medications, home oxygen, and was predicted to have a life expectancy of 6-8 weeks. After treatment with α-TOS, the patient no longer required analgesia or oxygen.
In December 2005, the patient started receiving transdermal delivery of α-TOS, prepared in a base cream and solubilised with dimethyl sulfoxide (DMSO).
In April 2007, therapy with α-TOS was commenced using a modified formulation mixed in a lipodermal cream (see below). […] In addition, a palpable lesion was visible growing out between the ribs and the right anterior chest wall. The patient was in very poor condition with a low ECOG- no CT scan could be performed at the time of commencing the α-TOS treatment because the patient was too moribund.
α-TOS formulation: 500 gms of Lipoderm cream plus 60 gms α-TOS compounded by the hospital pharmacy. About 30 gms of compounded mix was administered every few days, and the upper body was wrapped in plastic film (“saran wrap”) to improve absorption.

MDA-MB-453 cells = assay: Apoptosis, annexin V-FITC method; type: cell-based, human
Protocol: (§1) Cell culture and treatment. […] Cells were cultured in DMEM with 10% FCS, 100 U/ml penicillin and 100 μg/ml streptomycin at 37° C. in a humidified atmosphere of 5% CO2. Mitochondrial complex I-deficient (Breen and Scheffler 1979; DeFrancesco et al 1976; Scheffler et al 2004) and complex II-deficient cells (Albayrak et al 2003; Oostveen et al 1995) were grown in DMEM with 10% FCS, […] glucose and non-essential amino acids.
At approximately 70% confluency, cells were treated with up to 50 μM α-TOS (Sigma), up to 100 μM 3-BP (Aldrich) or 30 ng/ml of human recombinant tumor necrosis factor-related apoptosis—inducing ligand (TRAIL) (Weber et al, 2002) under normoxic or hypoxic conditions. For hypoxia, cells overlaid with nitrogen-purged medium were placed in a hypoxic chamber pre-flushed extensively with nitrogen. The hypoxic chamber with cells was then placed in the incubator as required. α-TOS was dissolved in ethanol and used such that the final ethanol concentration in cell culture medium was <0.1% (v/v). Stock solutions of 3-BP were prepared in PBS prior to use.
(§2) Apoptosis assessment. Apoptosis was quantified using the annexin V-FITC method, which detects phosphatidyl serine externalized in the early phases of apoptosis (Boersma et al, 1996). Briefly, cells were plated at 10^5 per well in 24-well plates and, after an overnight recuperation, treated with α-TOS or 3-BP alone or in combination. Floating and attached cells were harvested, washed with PBS, resuspended in 0.2 ml binding buffer (10 mM Hepes, 140 mM NaCl, 5 mM CaCl2, pH 7.4), incubated for 30 min at 4° C. with 2 μl annexin V-FITC (PharMingen), supplemented with 200 μl of 50 μg/ml propidium iodide (PI; Sigma), and analyzed by flow cytometry (FACScalibur, Becton Dickinson) using channel 1 for annexin V-FITC binding and channel 2 for PI staining. Cell death was quantified as the percentage of cells with increased annexin V binding and PI staining.
RNA interference (RNAi). Short-interfering RNA (siRNA) oligonucleotides with 3′-dTdT overhangs specific for Akt1 were synthesized by Qiagen. The sequences are as follows: target sequence: […] (SEQ ID NO 2); siRNA duplex sequences: sense—r([…] )dTdT (SEQ ID NO 3), antisense—r([…] )dTdT (SEQ ID NO 4). The transfection of cultured MDA-MB-453 cells with siRNA was performed using OligofectAmine (Invitrogen) and OptiMEM according to the manufacturer's instructions. Briefly, cells were allowed to reach 50% confluency and supplemented with […] siRNA pre-incubated with OligofectAmine and overlayed with OptiMEM. Cells were washed 24 h later with PBS, overlayed with complete DMEM and treated as required after an additional 24 h.
Transfection of MDA-MB-453 cells with siRNAs was performed using OligofectAmine and OptiMEM. Briefly, cells were allowed to reach ˜50% confluency and supplemented with 60 pmol/l siRNA pre-incubated with OligofectAmine and overlayed with OptiMEM. Cells were washed 24 h later with PBS, overlaid with complete DMEM, cultured for an additional 24 h, 48 h and transgene expression confirmed using Western blotting before they were used for further experiments.

cancer cells = assay: IC50, killing of cancer cells in vitro; type: cell-based; conditions: approximately
Description: FIG. 9. […] IC50: Concentration in micromolar that is needed of a particular drug to induce 50% killing of cancer cells in vitro. −log Kd: inverse log of the particular drug's binding affinity.
In FIG. 9, the inventors analysed the correlation between the binding affinities of the vitamin E analogues for the ubiquinone site and their biological activity in causing apoptosis of cancer cells. The result indicates a direct relationship between the binding affinity to the site and their ability to kill cancer cells. The differences observed between the docking and the list of results reflects the biological accessibility of the compounds reaching the complex II target site. Thus, the IC50 reflects not only the ability of the analogues to bind to the site, but also their ability to enter across the cell membrane and gain access to the mitochondrial matrix. […] The best comparison would be made by comparing the Autodock results with an enzyme assay using purified complex II kits commercially available (MS201 COMPLEX II IMMUNOCAPTURE KIT MitoScience LLC, 1850 Millrace Drive, Suite 3A, Eugene, Oreg. 97403, USA, http://www.mitosciences.com).

[1] = system: Chinese hamster lung fibroblasts (B1, B10, B9, B9rec cells); assay: ROS, SDH activity and apoptosis in complex I- and complex II-deficient cells; type: cell-based
Protocol: as §1
Assessment of ROS accumulation. Cellular ROS were detected with the probe dihydroethidinium (DHE) (Molecular Probes) by flow cytometry (Weber et al, 2003), or by trapping with 5,5-dimethyl-1-pyrroline N-oxide (DMPO; Sigma) using electron paramagnetic resonance (EPR) spectro-scopy (Weber et al, 2003). In some studies, the cells were pre-treated for 1 h with 2 μM MitoQ (James et al, 2005) or coincubated with SOD (PEG-SOD, 750 units/ml; Sigma).
as §2
Complex I- and complex II-deficient cells were also used to confirm the above in vitro results of Example 6.

[2] = compared to parental (B1) or B10 cells

Q: With `Cc1c(C)c2c(c(C)c1OC(=O)CCC(=O)O)CC[C@@](C)(CCC[C@H](C)CCC[C@H](C)CCCC(C)C)O2` [Compound 1, α-tocopheryl succinate] as the molecule, how does the “clinical effect” value (mesothelioma; human patient, α-TOS therapy) read?
A: Its value is “worked very effectively; also recorded: shrunk dramatically”.

Q: What about the side effects (mesothelioma; human patient, α-TOS therapy) of the same molecule?
A: Its side effects is “non-toxic with no observable side-effects and was well tolerated; also recorded: no obvious side-effects from the α-TOS therapy apart from a mild itch”.

Q: And the “levels of α-TOS in the plasma” value (mesothelioma; human, transdermal, continual application, over prolonged periods)?
A: Its value is 50 µM.

Q: What about the “clinical response, DMSO base cream” value (mesothelioma; transdermal α-TOS in base cream solubilised with DMSO) of the same molecule?
A: Its value is “showed clinical response”.

Q: And the “side effects, DMSO base cream” value (mesothelioma; transdermal α-TOS in base cream solubilised with DMSO, about 8 weeks)?
A: The value was “major skin reaction problems secondary to DMSO”.

Q: What about the apoptosis (MDA-MB-453 cells; MDA-MB-453 (erbB2-high), normoxia or hypoxia) of the same molecule?
A: Its apoptosis is “sensitive to apoptosis induced by α-TOS under both normoxia and hypoxia”.

Q: And the “apoptosis after Akt1 knock-down” value (MDA-MB-453 cells; pre-treated with 60 pM Akt1 siRNA for 24 h, then drug 24 h)?
A: The value was “sensitizes”.

Q: What about the IC50 (cancer cells) of the same molecule?
A: Its IC50 is 40 to 50 µM.

Q: What about the “apoptosis in B1, B10 and B9 cells” value [1] of the same molecule?
A: Its value is “initiated apoptosis”.

Q: What about the “cell killing in CII-reconstituted B9 cells” value ([1]; CybL-mutant (B9) cells after reconstitution of CII) of the same molecule?
A: Its value is “restored cell sensitivity to α-TOS-induced killing”.

Q: And the “ROS accumulation in CII-dysfunctional B9 cells” value [1, 2]?
A: The value was “lower levels of ROS accumulation”.

Q: And the “apoptosis in CII-dysfunctional B9 cells” value [1, 2]?
A: Its value is “relatively resistant to apoptosis”.
